Results published in patent US7977352B2, “Triazolopyridine compounds useful for the treatment of degenerative and inflammatory diseases” (Galapagos NV, priority 2006, dated 2011).

molecular target: T1, TAK1-TAB1 fusion protein (Homo sapiens, UniProt O43318); assay: In vitro TAK1 kinase assay; assay type: biochemical; settings: casein substrate, [33P]-γ-ATP, 90 minutes at 30° C., semi-quantitative score, read-out: POTENCY TAK1 (MAP3K7)
T1 construct: purchased Upstate 14-600
T1 sequence (O43318 with tags, fused parts or gaps limits assumed): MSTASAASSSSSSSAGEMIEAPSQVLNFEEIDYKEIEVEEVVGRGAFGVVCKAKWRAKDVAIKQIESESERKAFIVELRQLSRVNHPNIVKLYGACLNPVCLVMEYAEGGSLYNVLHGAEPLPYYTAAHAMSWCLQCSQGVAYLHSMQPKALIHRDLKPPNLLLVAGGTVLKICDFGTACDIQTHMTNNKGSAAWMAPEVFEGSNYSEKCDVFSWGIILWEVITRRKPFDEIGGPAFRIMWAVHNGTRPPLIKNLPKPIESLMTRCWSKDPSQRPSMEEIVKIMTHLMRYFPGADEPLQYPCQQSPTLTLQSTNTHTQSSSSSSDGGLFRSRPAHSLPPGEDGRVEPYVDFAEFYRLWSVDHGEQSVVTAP
Method in brief: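 Radiometric kinase assay with TAK1-TAB1 fusion protein (0.5 mU), casein substrate, ATP plus [^33P]-γ-ATP in MOPS pH 7.0/EDTA buffer, compounds in 3-fold dilutions. 90 min at 30 °C, stopped with phosphoric acid; casein-incorporated label captured on filter plates and counted by scintillation.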

Compound | IC50 [µM]
Cc1[nH]ncc1-c1ccc(Nc2ccc(N3CCOCC3)cc2)c2ncnn12 [Example 39, 5-(5-methyl-1H-pyrazol-4-yl)-N-(4-morpholin-4-ylphenyl)[1,2,4]triazolo[1,5-a]pyridin-8-amine] | 1 to 5
CN1CCN(c2ccc(Nc3ccc(-c4ccc(C(N)=O)c(F)c4)n4ncnc34)cc2)CC1 [Example 42, 2-fluoro-4-(8-{[4-(4-methylpiperazin-1-yl)phenyl]amino}[1,2,4]triazolo[1,5-a]pyridin-5-yl)benzamide] | 1 to 5
O=C(NCc1cccnc1)c1ccc(Nc2ccc(-c3cc[nH]c(=O)c3)n3ncnc23)cc1 [Example 41, 4-{[5-(2-oxo-1,2-dihydropyridin-4-yl)[1,2,4]triazolo[1,5-a]pyridin-8-yl]amino}-N-(pyridin-3-ylmethyl)benzamide] | 1 to 5
CN1CCN(c2ccc(Nc3ccc(-c4cn[nH]c4)n4ncnc34)cc2)CC1 [Example 2, [4-(4-Methyl-piperazin-1-yl)-phenyl]-[5-(1H-pyrazol-4-yl)-[1,2,4]triazolo[1,5-a]pyridin-8-yl]-amine] | 0.501 to 1
NC(=O)c1ccc(-c2ccc(Nc3ccc(N4CCOCC4)cc3)c3ncnn23)cc1 [Example 1, 4-[8-(4-Morpholin-4-yl-phenylamino)-[1,2,4]triazolo[1,5-a]pyridin-5-yl]-benzamide] | > 10
O=C(NCc1cccnc1)c1ccc(Nc2ccc(-c3cn[nH]c3)n3ncnc23)cc1 [Example 3, 4-[5-(1H-Pyrazol-4-yl)-[1,2,4]triazolo[1,5-a]pyridin-8-ylamino]-N-pyridin-3-ylmethyl-benzamide] | 0.501 to 1
Cc1[nH]ncc1-c1ccc(Nc2ccc(N3CCOCC3)cc2)c2ncnn12 [Example 8, [5-(5-Methyl-1H-pyrazol-4-yl)-[1,2,4]triazolo[1,5-a]pyridin-8-yl]-(4-morpholin-4-yl-phenyl)-amine] | 1 to 5
O=C(NCc1cccnc1)c1ccc(Nc2ccc(-c3cn[nH]c3)n3ncnc23)cc1 [Example 37, 4-{[5-(1H-pyrazol-4-yl)[1,2,4]triazolo[1,5-a]pyridin-8-yl]amino}-N-(pyridin-3-ylmethyl)benzamide] | 0.501 to 1

The remaining lines, values ahead:

IC50 [µM] | Compound
< 0.5 | CN1CCN(c2ccc(Nc3ccc(-c4cc[nH]c(=O)c4)n4ncnc34)cc2)CC1 [Example 40, 4-(8-{[4-(4-methylpiperazin-1-yl)phenyl]amino}[1,2,4]triazolo[1,5-a]pyridin-5-yl)pyridin-2(1H)-one]
< 0.5 | CN1CCN(c2ccc(Nc3ccc(-c4cn[nH]c4)n4ncnc34)cc2)CC1 [Example 36, N-[4-(4-methylpiperazin-1-yl)phenyl]-5-(1H-pyrazol-4-yl)[1,2,4]triazolo[1,5-a]pyridin-8-amine]
0.501 to 1 | O=C(NCc1cccnc1)c1ccc(Nc2ccc(-c3cc[nH]c(=O)c3)n3ncnc23)cc1 [Example 5, 4-[5-(2-oxo-1,2-dihydro-pyridin-4-yl)-[1,2,4]triazolo[1,5-a]pyridin-8-ylamino]-N-pyridin-3-ylmethyl-benzamide]
0.501 to 1 | c1nc2c(Nc3ccc(N4CCOCC4)cc3)ccc(-c3cn[nH]c3)n2n1 [Example 7, (4-Morpholin-4-yl-phenyl)-[5-(1H-pyrazol-4-yl)-[1,2,4]triazolo[1,5-a]pyridin-8-yl]-amine]
0.501 to 1 | CN1CCN(c2ccc(Nc3ccc(-c4cc[nH]c(=O)c4)n4ncnc34)cc2)CC1 [Example 4, 4-{8-[4-(4-Methyl-piperazin-1-yl)-phenylamino]-[1,2,4]triazolo[1,5-a]pyridin-5-yl}-1H-pyridin-2-one]
